Results from US6465395B2, “Substituted methylene pyrazolinones and the herbicidal use thereof” (BASF Aktiengesellschaft, priority 2000, dated 2002).

What was measured:
Type in all cases: in vivo
[1] = test system: GOSHI, Cotton, Gossypium hirsutum, L.; test: Preemergence herbicidal evaluation; parameters: scale not given here; details: crop (cotton)
Excerpt: (§1) The preemergence herbicidal activity of the test compounds of the present invention is exemplified by the following tests in which the seeds of a variety of monocotyledonous and dicotyledonous plants are separately mixed with potting soil and planted on top of approximately one inch of soil in separate pint cups. After planting, the cups are sprayed with the selected aqueous acetone solution containing test compound in sufficient quantity to provide the equivalent of about 0.0125 kg/ha to 0.800 kg/ha of test compound per cup. The treated cups are then placed on greenhouse benches, watered and cared for in accordance with conventional greenhouse procedures. Approximately two to four weeks after treatment, the tests are terminated and each cup is examined and rated according to the rating system provided in Example 12. When more than one test is performed for a given compound, the data are averaged.

[2] = test system: PANDI, Panicum, Fall, Panicum dichotomiflorum, Michx; test: Preemergence herbicidal evaluation; parameters: scale not given here
Excerpt: as §1

[3] = test system: ABUTH, Velvetleaf, Abutilon theophrasti, Medic.; test: Preemergence herbicidal evaluation; parameters: scale not given here
Excerpt: as §1

[4] = test system: CHEAL, Lambsquarters, Chenopodium album, L.; test: Preemergence herbicidal evaluation; parameters: scale not given here
Excerpt: as §1

[5] = test system: ZEAMX, Corn, Field, Zea mays, L.; test: Preemergence herbicidal evaluation; parameters: scale not given here; details: crop (corn)
Excerpt: as §1

[6] = test system: IPOSS, Morningglory spp., Ipomoea spp.; test: Preemergence herbicidal evaluation; parameters: scale not given here
Excerpt: as §1

[7] = test system: ORYSAT, Rice, Tebonnet, Oryza sativa, (L.) Tebonnet; test: Preemergence herbicidal evaluation; parameters: scale not given here; details: crop (rice)
Excerpt: as §1

[8] = test system: ECHCG, Barnyardgrass, Echinochloa crus-galli, (L.) Beau; test: Preemergence herbicidal evaluation; parameters: scale not given here
Excerpt: as §1

[9] = test system: SETVI, Foxtail, Green, Setaria viridis, (L.) Beau; test: Preemergence herbicidal evaluation; parameters: scale not given here
Excerpt: as §1

[10] = test system: AMBEL, Ragweed, Ambrosia artemisifolia, L.; test: Preemergence herbicidal evaluation; parameters: scale not given here
Excerpt: as §1

[11] = test system: GOSHI, Cotton, Gossypium hirsutum, L.; test: Postemergence herbicidal evaluation; details: crop (cotton)
Description: (§2) The postemergence herbicidal activity of the compounds of the present invention is evaluated by the following tests. Seedling plants are grown in jiffy flats for about two weeks. The test compounds are dispersed in 80/20 (v/v) acetone/water mixtures containing 1.0% SUN-IT®II, a methylated seed oil, in sufficient quantities to provide the equivalent of about 0.006 kg/ha to 0.800 kg/ha of active compound when applied to the plants through a spray nozzle operating at 40 psi for a predetermined time. After spraying, the plants are placed on greenhouse benches and are cared for in accordance with conventional greenhouse procedures. Approximately two to three weeks after treatment, the seedling plants are examined and rated according to the rating system set forth below. Where more than one test is involved for a given compound, the data are averaged.

[12] = test system: PANDI, Panicum, Fall, Panicum dichotomiflorum, Michx; test: Postemergence herbicidal evaluation
Description: as §2

[13] = test system: ABUTH, Velvetleaf, Abutilon theophrasti, Medic.; test: Postemergence herbicidal evaluation
Description: as §2

[14] = test system: CHEAL, Lambsquarters, Chenopodium album, L.; test: Postemergence herbicidal evaluation
Description: as §2

[15] = test system: ZEAMX, Corn, Field, Zea mays, L.; test: Postemergence herbicidal evaluation; details: crop (corn)
Description: as §2

[16] = test system: IPOSS, Morningglory spp., Ipomoea spp.; test: Postemergence herbicidal evaluation
Description: as §2

[17] = test system: ORYSAT, Rice, Tebonnet, Oryza sativa, (L.) Tebonnet; test: Postemergence herbicidal evaluation; details: crop (rice)
Description: as §2

[18] = test system: ECHCG, Barnyardgrass, Echinochloa crus-galli, (L.) Beau; test: Postemergence herbicidal evaluation
Description: as §2

[19] = test system: SETVI, Foxtail, Green, Setaria viridis, (L.) Beau; test: Postemergence herbicidal evaluation
Description: as §2

[20] = test system: AMBEL, Ragweed, Ambrosia artemisifolia, L.; test: Postemergence herbicidal evaluation
Description: as §2

4-Methoximino-5-methyl-6-(1-ethyl-5-hydroxypyrazol-4-yl)thiocarbonylthiochroman-1,1-dioxide, zinc (+2) chelate [Example 6]
9.0: Herbicide rating PANDI ([2]; 0.1000 kg/ha) | Herbicide rating PANDI ([2]; 0.2000 kg/ha) | Herbicide rating ABUTH ([3]; 0.0500 kg/ha) | Herbicide rating ABUTH ([3]; 0.1000 kg/ha) | Herbicide rating ABUTH ([3]; 0.2000 kg/ha) | Herbicide rating ABUTH ([3]; 0.4000 kg/ha) | Herbicide rating ABUTH ([3]; 0.8000 kg/ha) | Herbicide rating CHEAL ([4]; 0.0500 kg/ha) | Herbicide rating CHEAL ([4]; 0.1000 kg/ha) | Herbicide rating CHEAL ([4]; 0.2000 kg/ha) | Herbicide rating CHEAL ([4]; 0.4000 kg/ha) | Herbicide rating CHEAL ([4]; 0.8000 kg/ha) | Herbicide rating ORYSAT ([7]; 0.2000 kg/ha) | Herbicide rating ORYSAT ([7]; 0.4000 kg/ha) | Herbicide rating ORYSAT ([7]; 0.8000 kg/ha) | Herbicide rating ECHCG ([8]; 0.1000 kg/ha) | Herbicide rating ECHCG ([8]; 0.2000 kg/ha) | Herbicide rating ECHCG ([8]; 0.4000 kg/ha) | Herbicide rating SETVI ([9]; 0.2000 kg/ha) | Herbicide rating SETVI ([9]; 0.4000 kg/ha) | Herbicide rating SETVI ([9]; 0.8000 kg/ha) | Herbicide rating AMBEL ([10]; 0.2000 kg/ha) | Herbicide rating AMBEL ([10]; 0.4000 kg/ha) | Herbicide rating AMBEL ([10]; 0.8000 kg/ha)
0.0: Herbicide rating GOSHI ([1]; 0.0500 kg/ha) | Herbicide rating ZEAMX ([5]; 0.0500 kg/ha) | Herbicide rating ZEAMX ([5]; 0.1000 kg/ha) | Herbicide rating ZEAMX ([5]; 0.2000 kg/ha) | Herbicide rating ZEAMX ([5]; 0.8000 kg/ha)
6.0: Herbicide rating GOSHI ([1]; 0.2000 kg/ha) | Herbicide rating PANDI ([2]; 0.0500 kg/ha) | Herbicide rating IPOSS ([6]; 0.2000 kg/ha)
3.0: Herbicide rating IPOSS ([6]; 0.1000 kg/ha) | Herbicide rating ECHCG ([8]; 0.0500 kg/ha)
4.0: Herbicide rating ORYSAT ([7]; 0.0500 kg/ha) | Herbicide rating SETVI ([9]; 0.0500 kg/ha)
7.0: Herbicide rating GOSHI ([1]; 0.8000 kg/ha) | Herbicide rating ORYSAT ([7]; 0.1000 kg/ha) | Herbicide rating SETVI ([9]; 0.1000 kg/ha) | Herbicide rating AMBEL ([10]; 0.0500 kg/ha)
1.0: Herbicide rating GOSHI ([1]; 0.1000 kg/ha) | Herbicide rating ZEAMX ([5]; 0.4000 kg/ha) | Herbicide rating IPOSS ([6]; 0.0500 kg/ha)
8.0: Herbicide rating GOSHI ([1]; 0.4000 kg/ha) | Herbicide rating PANDI ([2]; 0.4000 kg/ha) | Herbicide rating PANDI ([2]; 0.8000 kg/ha) | Herbicide rating ECHCG ([8]; 0.8000 kg/ha) | Herbicide rating AMBEL ([10]; 0.1000 kg/ha)
5.0: Herbicide rating IPOSS ([6]; 0.4000 kg/ha) | Herbicide rating IPOSS ([6]; 0.8000 kg/ha)

CCCS/C(=C1\C=NN(CC)C1=O)c1ccc2c(c1C)/C(=N/OC)CCS2(=O)=O [Example 8a, 1-Ethyl-4-[(E)-(5-methyl-4-oxothiochroman-6-yl)(propylthio)methylene]-2-pyrazolin-5-one 4′-[(E)-O-methyloxime], S,S-dioxide]
1.5: Herbicide rating ORYSAT ([17]; 0.2000 kg/ha)
9.0: Herbicide rating PANDI ([12]; 0.8000 kg/ha) | Herbicide rating CHEAL ([14]; 0.1000 kg/ha) | Herbicide rating CHEAL ([14]; 0.2000 kg/ha) | Herbicide rating CHEAL ([14]; 0.4000 kg/ha) | Herbicide rating CHEAL ([14]; 0.8000 kg/ha) | Herbicide rating ECHCG ([18]; 0.4000 kg/ha) | Herbicide rating ECHCG ([18]; 0.8000 kg/ha) | Herbicide rating SETVI ([19]; 0.8000 kg/ha) | Herbicide rating CHEAL ([4]; 0.4000 kg/ha) | Herbicide rating CHEAL ([4]; 0.8000 kg/ha)
0.5: Herbicide rating ZEAMX ([15]; 0.8000 kg/ha)
4.0: Herbicide rating IPOSS ([16]; 0.8000 kg/ha) | Herbicide rating SETVI ([19]; 0.1000 kg/ha) | Herbicide rating SETVI ([9]; 0.4000 kg/ha)
7.0: Herbicide rating PANDI ([12]; 0.2000 kg/ha) | Herbicide rating CHEAL ([14]; 0.0500 kg/ha) | Herbicide rating AMBEL ([20]; 0.4000 kg/ha)
0.7: Herbicide rating ORYSAT ([17]; 0.1000 kg/ha)
8.0: Herbicide rating ABUTH ([13]; 0.4000 kg/ha) | Herbicide rating ECHCG ([18]; 0.0500 kg/ha) | Herbicide rating ECHCG ([18]; 0.1000 kg/ha) | Herbicide rating ECHCG ([18]; 0.2000 kg/ha) | Herbicide rating SETVI ([19]; 0.4000 kg/ha) | Herbicide rating AMBEL ([20]; 0.8000 kg/ha) | Herbicide rating PANDI ([2]; 0.8000 kg/ha)
1.0: Herbicide rating ABUTH ([13]; 0.1000 kg/ha) | Herbicide rating SETVI ([19]; 0.0500 kg/ha)
0.0: Herbicide rating GOSHI ([11]; 0.0500 kg/ha) | Herbicide rating GOSHI ([11]; 0.1000 kg/ha) | Herbicide rating GOSHI ([11]; 0.2000 kg/ha) | Herbicide rating ABUTH ([13]; 0.0500 kg/ha) | Herbicide rating ZEAMX ([15]; 0.0500 kg/ha) | Herbicide rating ZEAMX ([15]; 0.1000 kg/ha) | Herbicide rating ZEAMX ([15]; 0.2000 kg/ha) | Herbicide rating ZEAMX ([15]; 0.4000 kg/ha) | Herbicide rating IPOSS ([16]; 0.0500 kg/ha) | Herbicide rating IPOSS ([16]; 0.1000 kg/ha) | Herbicide rating IPOSS ([16]; 0.2000 kg/ha) | Herbicide rating ORYSAT ([17]; 0.0500 kg/ha) | Herbicide rating GOSHI ([1]; 0.4000 kg/ha) | Herbicide rating ZEAMX ([5]; 0.4000 kg/ha) | Herbicide rating ZEAMX ([5]; 0.8000 kg/ha) | Herbicide rating IPOSS ([6]; 0.4000 kg/ha) | Herbicide rating ORYSAT ([7]; 0.4000 kg/ha) | Herbicide rating ECHCG ([8]; 0.4000 kg/ha)
3.0: Herbicide rating GOSHI ([11]; 0.4000 kg/ha) | Herbicide rating PANDI ([12]; 0.0500 kg/ha) | Herbicide rating AMBEL ([20]; 0.1000 kg/ha) | Herbicide rating ORYSAT ([7]; 0.8000 kg/ha) | Herbicide rating AMBEL ([10]; 0.4000 kg/ha)
2.0: Herbicide rating ABUTH ([13]; 0.2000 kg/ha) | Herbicide rating IPOSS ([16]; 0.4000 kg/ha) | Herbicide rating AMBEL ([20]; 0.0500 kg/ha) | Herbicide rating GOSHI ([1]; 0.8000 kg/ha) | Herbicide rating ABUTH ([3]; 0.4000 kg/ha) | Herbicide rating IPOSS ([6]; 0.8000 kg/ha) | Herbicide rating ECHCG ([8]; 0.8000 kg/ha)
5.0: Herbicide rating ORYSAT ([17]; 0.4000 kg/ha) | Herbicide rating ORYSAT ([17]; 0.8000 kg/ha) | Herbicide rating SETVI ([19]; 0.2000 kg/ha) | Herbicide rating PANDI ([2]; 0.4000 kg/ha) | Herbicide rating SETVI ([9]; 0.8000 kg/ha)
6.0: Herbicide rating GOSHI ([11]; 0.8000 kg/ha) | Herbicide rating PANDI ([12]; 0.1000 kg/ha) | Herbicide rating PANDI ([12]; 0.4000 kg/ha) | Herbicide rating ABUTH ([13]; 0.8000 kg/ha) | Herbicide rating AMBEL ([20]; 0.2000 kg/ha) | Herbicide rating ABUTH ([3]; 0.8000 kg/ha) | Herbicide rating AMBEL ([10]; 0.8000 kg/ha)
